Results from ChEMBL document CHEMBL1201862, “PubChem BioAssay data set” (2004).
Calls of active or inactive are those of the source.

Legend:
[1] = target: Alkaline phosphatase, placental type (Homo sapiens, UniProt P05187); test: PLAP enzyme inhibitors, confirmation, biochemical, luminescence (AID 1512); assay type: functional
[2] = target: T1, Alkaline phosphatase, tissue-nonspecific isozyme (Homo sapiens, UniProt P05186); test: human TNAP enzyme inhibitors, SAR follow-up, biochemical, luminescent, dose response (AID 1056)
T1 sequence (P05186 whole entry): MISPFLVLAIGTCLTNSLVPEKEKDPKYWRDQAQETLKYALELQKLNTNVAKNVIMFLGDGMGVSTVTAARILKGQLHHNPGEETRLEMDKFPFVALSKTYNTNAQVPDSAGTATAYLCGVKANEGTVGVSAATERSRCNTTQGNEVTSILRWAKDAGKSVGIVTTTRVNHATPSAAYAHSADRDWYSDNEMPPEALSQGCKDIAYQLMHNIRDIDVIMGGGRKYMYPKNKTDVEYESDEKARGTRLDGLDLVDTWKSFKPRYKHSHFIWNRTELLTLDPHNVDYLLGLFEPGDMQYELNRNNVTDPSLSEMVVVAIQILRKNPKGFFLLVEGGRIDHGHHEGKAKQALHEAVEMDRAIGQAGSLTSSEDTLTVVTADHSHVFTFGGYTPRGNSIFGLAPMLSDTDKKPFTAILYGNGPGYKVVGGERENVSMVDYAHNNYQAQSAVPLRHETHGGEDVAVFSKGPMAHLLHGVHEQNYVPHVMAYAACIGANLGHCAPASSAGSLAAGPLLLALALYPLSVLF

[3] = THP-1 cell cytotoxicity, dose response, cytotoxicity control for non-replicating M. tuberculosis project (AID 489025); assay type: functional
[4] = Vero E6 cell cytotoxicity, dose response, cytotoxicity control for non-replicating M. tuberculosis project, secondary assay (AID 492998); assay type: functional, VeroE6; settings: Vero C1008
[5] = target: T2, Heat shock factor protein 1 (Mus musculus, UniProt P38532); test: HSF1 potentiators in luciferase reporter cells, confirmation, cell-based, NIH3T3, luminescence, dose retest (AID 435004); assay type: functional;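 note: stress induced by proteasome inhibitor MG132 added 30 min after compound; luciferase reporter driven by HSF1 response element in NIH3T3 cells; actives raise luminescence as potentiators of the MG132 stress response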
T2 sequence (P38532 whole entry): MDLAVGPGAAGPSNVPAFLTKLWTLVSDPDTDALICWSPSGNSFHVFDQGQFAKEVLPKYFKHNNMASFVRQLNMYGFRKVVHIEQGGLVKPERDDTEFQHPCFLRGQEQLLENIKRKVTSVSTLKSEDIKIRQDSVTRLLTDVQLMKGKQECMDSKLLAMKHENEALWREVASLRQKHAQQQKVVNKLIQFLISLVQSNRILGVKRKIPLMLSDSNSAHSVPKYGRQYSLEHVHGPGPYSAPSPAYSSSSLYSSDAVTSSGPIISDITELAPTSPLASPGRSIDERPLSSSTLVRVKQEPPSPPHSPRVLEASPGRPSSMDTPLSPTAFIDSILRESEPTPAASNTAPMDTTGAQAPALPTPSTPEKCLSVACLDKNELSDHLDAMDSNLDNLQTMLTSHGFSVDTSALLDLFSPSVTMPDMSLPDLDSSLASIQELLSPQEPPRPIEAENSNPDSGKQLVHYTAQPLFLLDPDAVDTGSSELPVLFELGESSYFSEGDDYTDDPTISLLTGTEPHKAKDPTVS

cells = assay type: functional
HEK293 [6] = test: NOD1 signaling inhibitors, primary screen, cell-based, luminescence, uHTS (AID 1578); assay type: functional; settings: Homo sapiens
HEK293 [7] = test: cells; assay type: functional, cell-based; settings: Homo sapiens
HEK293 [8] = test: cells; assay type: functional, cell-based; settings: Homo sapiens; remark: listed apart in the source
[9] = target: Nucleotide-binding oligomerization domain-containing protein 2 (Homo sapiens, UniProt Q9HC29); test: NOD2 signaling inhibitors, cell-based, luminescence, uHTS, HEK293 (AID 1566); assay type: functional
Nucleotide-binding oligomerization domain-containing protein 2, sequence (Q9HC29 whole entry, the tested form may be a part): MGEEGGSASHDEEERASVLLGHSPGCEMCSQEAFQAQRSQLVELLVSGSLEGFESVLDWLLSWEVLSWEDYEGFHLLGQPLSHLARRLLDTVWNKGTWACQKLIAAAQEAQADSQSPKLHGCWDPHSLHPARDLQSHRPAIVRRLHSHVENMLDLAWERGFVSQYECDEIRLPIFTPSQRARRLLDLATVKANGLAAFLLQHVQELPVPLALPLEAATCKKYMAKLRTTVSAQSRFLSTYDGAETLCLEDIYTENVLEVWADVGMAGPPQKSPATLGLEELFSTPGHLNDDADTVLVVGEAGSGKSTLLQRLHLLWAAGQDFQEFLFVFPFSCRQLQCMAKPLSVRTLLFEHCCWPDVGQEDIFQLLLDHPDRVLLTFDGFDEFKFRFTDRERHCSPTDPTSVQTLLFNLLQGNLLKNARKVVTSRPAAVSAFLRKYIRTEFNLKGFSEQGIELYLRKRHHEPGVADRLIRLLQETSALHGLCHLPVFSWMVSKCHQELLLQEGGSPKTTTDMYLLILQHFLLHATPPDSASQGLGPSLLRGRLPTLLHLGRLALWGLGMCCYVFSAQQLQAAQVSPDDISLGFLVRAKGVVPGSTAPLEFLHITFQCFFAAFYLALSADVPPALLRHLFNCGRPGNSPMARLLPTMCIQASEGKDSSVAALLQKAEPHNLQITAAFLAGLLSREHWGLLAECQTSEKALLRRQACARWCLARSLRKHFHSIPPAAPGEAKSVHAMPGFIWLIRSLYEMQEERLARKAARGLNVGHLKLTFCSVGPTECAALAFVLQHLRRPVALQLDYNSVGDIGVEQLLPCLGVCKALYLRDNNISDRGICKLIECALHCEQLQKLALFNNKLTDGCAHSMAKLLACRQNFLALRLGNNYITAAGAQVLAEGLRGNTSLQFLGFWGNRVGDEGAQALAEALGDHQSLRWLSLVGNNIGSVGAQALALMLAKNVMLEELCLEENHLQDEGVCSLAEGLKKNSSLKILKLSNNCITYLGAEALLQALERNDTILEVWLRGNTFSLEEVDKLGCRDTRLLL

HEK293 [10] = test: NOD2 signaling inhibitors in MDP-stimulated cells, cell-based, uHTS, luminescence (AID 2001); assay type: functional; settings: Homo sapiens
HEK293 [11] = test: cells; assay type: functional, cell-based; settings: Homo sapiens; remark: listed apart in the source
[12] = growth suppression of PTEN-null colon cells, dose response, cell-based, HCT116 PTEN knockout (AID 1047); assay type: functional;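 note: HCT116 colon tumor cells with PTEN knocked out; cells exposed to compound for 60 hours before readout; potency for loss of cell viability measured by luminescence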
[13] = growth suppression of beta-catenin-knockout colon cells, dose response, cell-based, HCT116, human colon tumor (AID 1045); assay type: functional;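 note: HCT116 colon tumor cells with beta catenin knocked out; cells exposed to compound for 60 hours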
[14] = target: T3, Replicative DNA helicase DnaB (Mycobacterium tuberculosis, UniProt P9WMR3); test: DnaB intein splicing inhibitors, dose response, biochemical, cell-free fluorescence (AID 449749); assay type: functional
T3 sequence (P9WMR3 whole entry): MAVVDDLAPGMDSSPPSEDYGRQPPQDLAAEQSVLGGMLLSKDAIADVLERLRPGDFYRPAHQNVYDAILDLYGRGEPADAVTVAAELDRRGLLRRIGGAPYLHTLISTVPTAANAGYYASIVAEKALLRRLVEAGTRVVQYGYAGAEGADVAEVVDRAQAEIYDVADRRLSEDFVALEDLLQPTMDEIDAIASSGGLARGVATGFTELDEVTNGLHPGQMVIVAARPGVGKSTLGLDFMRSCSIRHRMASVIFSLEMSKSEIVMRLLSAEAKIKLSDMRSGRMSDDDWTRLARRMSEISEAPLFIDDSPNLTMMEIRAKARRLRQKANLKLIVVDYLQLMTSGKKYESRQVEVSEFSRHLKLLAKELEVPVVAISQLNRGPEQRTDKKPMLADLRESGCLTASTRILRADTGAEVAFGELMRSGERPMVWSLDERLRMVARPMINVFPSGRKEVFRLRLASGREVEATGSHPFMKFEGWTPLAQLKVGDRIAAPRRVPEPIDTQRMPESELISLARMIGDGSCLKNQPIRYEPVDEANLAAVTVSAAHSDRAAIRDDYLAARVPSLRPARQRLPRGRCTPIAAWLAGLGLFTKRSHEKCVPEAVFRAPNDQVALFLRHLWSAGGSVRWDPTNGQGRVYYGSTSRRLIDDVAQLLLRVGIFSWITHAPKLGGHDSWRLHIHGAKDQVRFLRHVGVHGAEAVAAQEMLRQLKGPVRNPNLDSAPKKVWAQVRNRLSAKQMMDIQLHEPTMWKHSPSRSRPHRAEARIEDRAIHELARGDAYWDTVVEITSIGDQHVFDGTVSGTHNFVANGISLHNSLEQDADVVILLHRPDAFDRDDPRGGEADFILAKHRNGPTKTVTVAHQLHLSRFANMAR

[15] = target: Heat shock protein HSP 90-alpha (Homo sapiens, UniProt P07900); assay type: functional, organism-based
Protein RecA = target: T4, Protein RecA (Mycobacterium tuberculosis, UniProt P9WHJ3); test: Fluorescence Cell-Free Homogeneous Dose Retest to Identify Inhibitors of RecA-Intein Splicing Activity. [Related pubchem assays (depositor defined):AID2097, AID2223, AID489010, AID492950]; assay type: functional
T4 sequence (P9WHJ3 whole entry): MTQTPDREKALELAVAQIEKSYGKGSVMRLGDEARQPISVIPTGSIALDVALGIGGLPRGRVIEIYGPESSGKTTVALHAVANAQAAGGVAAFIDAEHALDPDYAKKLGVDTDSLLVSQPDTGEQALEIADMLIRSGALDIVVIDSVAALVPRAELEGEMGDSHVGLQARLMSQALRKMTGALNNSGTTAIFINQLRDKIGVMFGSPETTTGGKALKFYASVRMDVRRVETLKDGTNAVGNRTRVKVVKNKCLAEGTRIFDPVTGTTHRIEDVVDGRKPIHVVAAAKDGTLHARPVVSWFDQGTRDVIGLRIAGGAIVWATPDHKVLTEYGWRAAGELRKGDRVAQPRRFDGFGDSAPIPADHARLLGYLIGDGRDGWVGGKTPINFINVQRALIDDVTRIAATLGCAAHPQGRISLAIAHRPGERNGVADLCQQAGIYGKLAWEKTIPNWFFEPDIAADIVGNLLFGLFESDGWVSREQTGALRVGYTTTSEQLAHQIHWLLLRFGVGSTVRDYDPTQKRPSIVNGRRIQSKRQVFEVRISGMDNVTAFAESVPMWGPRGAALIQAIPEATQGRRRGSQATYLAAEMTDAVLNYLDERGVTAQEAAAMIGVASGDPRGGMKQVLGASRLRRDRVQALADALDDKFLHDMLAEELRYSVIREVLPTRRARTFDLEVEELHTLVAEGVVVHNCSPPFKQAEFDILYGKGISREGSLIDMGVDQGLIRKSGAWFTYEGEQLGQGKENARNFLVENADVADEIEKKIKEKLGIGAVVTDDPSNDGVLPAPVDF

[16] = target: T5, COUP transcription factor 2 (Homo sapiens, UniProt P24468); test: Luminescence-based cell-based high throughput dose response assay to identify inhibitors of COUP-TFII (NR2F2).; assay type: functional;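 note: HEK293 cells transiently cotransfected with COUP-TFII expression vector and reporter; luciferase reporter luminescence driven by COUP-TFII from the pX2-168 reporter plasmid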
T5 sequence (P24468 whole entry): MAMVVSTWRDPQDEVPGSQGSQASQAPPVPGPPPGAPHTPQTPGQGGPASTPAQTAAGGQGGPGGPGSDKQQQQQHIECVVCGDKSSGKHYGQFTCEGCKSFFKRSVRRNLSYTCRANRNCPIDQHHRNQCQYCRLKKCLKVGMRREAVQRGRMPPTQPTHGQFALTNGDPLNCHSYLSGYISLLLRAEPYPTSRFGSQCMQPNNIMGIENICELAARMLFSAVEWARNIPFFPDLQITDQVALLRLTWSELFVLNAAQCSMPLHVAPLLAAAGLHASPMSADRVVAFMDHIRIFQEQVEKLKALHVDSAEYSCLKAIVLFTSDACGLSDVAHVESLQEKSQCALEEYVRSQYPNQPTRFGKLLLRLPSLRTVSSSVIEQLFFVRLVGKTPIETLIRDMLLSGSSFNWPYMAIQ

[17] = target: Glyceraldehyde-3-phosphate dehydrogenase (Homo sapiens, UniProt P04406)
Glyceraldehyde-3-phosphate dehydrogenase, sequence (P04406 whole entry): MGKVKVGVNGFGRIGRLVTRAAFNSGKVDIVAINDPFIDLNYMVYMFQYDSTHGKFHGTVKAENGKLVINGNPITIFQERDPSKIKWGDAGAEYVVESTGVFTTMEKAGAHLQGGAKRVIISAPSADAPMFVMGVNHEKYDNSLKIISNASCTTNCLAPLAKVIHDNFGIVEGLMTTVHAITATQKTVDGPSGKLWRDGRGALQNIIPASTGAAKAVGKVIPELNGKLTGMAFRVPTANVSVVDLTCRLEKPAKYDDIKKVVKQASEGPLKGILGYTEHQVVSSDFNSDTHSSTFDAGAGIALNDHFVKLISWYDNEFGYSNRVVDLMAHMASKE

Alkaline phosphatase, placental type, sequence (P05187 whole entry): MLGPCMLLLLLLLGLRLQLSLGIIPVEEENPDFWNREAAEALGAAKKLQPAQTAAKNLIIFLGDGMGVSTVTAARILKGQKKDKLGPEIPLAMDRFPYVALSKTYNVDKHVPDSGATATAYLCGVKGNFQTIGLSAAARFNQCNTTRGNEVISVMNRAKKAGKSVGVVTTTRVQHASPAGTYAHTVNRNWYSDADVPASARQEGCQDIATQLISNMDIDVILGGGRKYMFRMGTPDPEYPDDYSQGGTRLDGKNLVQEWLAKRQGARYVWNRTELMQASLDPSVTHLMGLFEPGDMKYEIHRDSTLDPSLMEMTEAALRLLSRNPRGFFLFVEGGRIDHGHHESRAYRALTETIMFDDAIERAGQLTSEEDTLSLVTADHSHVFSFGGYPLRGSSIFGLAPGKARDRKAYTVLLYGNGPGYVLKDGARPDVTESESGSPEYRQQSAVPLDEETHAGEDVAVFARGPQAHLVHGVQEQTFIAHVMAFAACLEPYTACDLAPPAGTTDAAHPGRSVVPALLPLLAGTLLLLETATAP

SMILES | IC50 [1] | IC50 [2] | CC50 [3] | CC50 [4] | IC50 (cells) | EC50 (HEK293 [6]) | IC50 (HEK293 [7]) | IC50 (HEK293 [8]) | EC50 [9] | IC50 (HEK293 [10]) | IC50 (HEK293 [11]) | also measured
CCc1nc(SCC(=O)c2ccc(O)cc2O)n[nH]1 | > 100 µM (inactive) | > 100 µM (inactive) | – | – | – | – | – | – | – | – | – | –
COc1ccc(C(=O)Cn2c(C)nc([N+](=O)[O-])c2Br)cc1 | – | – | > 40 µM (active) | > 20 µM (active) | 12.1 µM (active) | – | – | – | – | – | – | EC50 [5]: 19.8 µM (active)
CC(C)CC(=O)/C(=C\c1ccc(Cl)cc1Cl)n1cncn1 | – | – | – | – | – | > 20 µM (inactive) | 4.25 µM (active) | 9.81 µM (active) | > 20 µM (inactive) | 7.85 µM (active) | > 20 µM (inactive) | EC50 [12]: 4.72 µM (active); EC50 [13]: 4.31 µM (active); AC50 [14]: 11.8 µM (active); AC50 [15]: 2.04 µM (active); EC50 (Protein RecA): 11.2 µM (active)
Cc1nc2c(-c3ccc(Cl)cc3)cnn2c(N)c1-c1ccc(F)cc1 | – | – | – | – | – | > 20 µM (inactive) | 2.34 µM (active) | > 20 µM (inactive) | > 20 µM (inactive) | > 20 µM (inactive) | > 20 µM (inactive) | IC50 [16]: > 85.4 µM (inactive)
CCc1ccc(-c2ccc(-c3nc(N)nn3-c3ccccc3)cc2)cc1 | > 100 µM (inactive) | > 100 µM (inactive) | – | – | – | – | – | – | – | – | – | IC50 [17]: > 100 µM (not active)
O=C(N/N=C\c1ccc([N+](=O)[O-])s1)C1COc2ccccc2O1 (centres undefined) | – | – | 22.6 µM (active) | 13.3 µM (active) | 5.68 µM (active) | 9.04 µM (active) | 19.1 µM (active) | > 20 µM (inactive) | – | 16.2 µM (inactive) | – | –
